Data set [1] concerns DLD-1 cells. Description: Cell death by Annexin V / propidium iodide FACS analysis. It is filed as cell-based, human. The following applies: 48 hours. The protocol: The effect of the compound 14 on colon epithelial cell death was also assessed. To this end, cells were cultured as indicated above for 2 days and then the fraction of Annexin V (AV) and/or propidium iodide (PI)-positive cells was evaluated using a commercially available kit (Beckmann Coulter™, Milan, Italy). To evaluate whether the effect of the compound 14 on colon epithelial cell death was dependent on caspase activity, cells were pre-incubated with z-VAD-fmk (40 μM), a pan-caspase inhibitor, for 1 hour prior to adding the compound 14 (1.5 mM). The fraction of AV and PI-positive cells was determined after 48 hours culture as indicated above.
In general terms: A flow cytometer gives signals particle by particle.

Data set [2] deals with DLD-1 cells. Nature of the data set: Cell growth by colorimetric BrdU incorporation assay, DLD-1. In kind it is cell-based. The settings on record: Homo sapiens, 48 hours; for inhibition at 500 µM: 0.5 mM; for inhibition at 1000 µM: 1 mM; for inhibition at 2500 µM: 2.5 mM; for inhibition at 5000 µM: 5 mM; for inhibition at 10000 µM: 10 mM. The protocol: (§1) HT-29 and DLD-1 cells were cultured in McCoy and RPMI1640 media respectively, supplemented with 10% fetal bovine serum (FBS), 1% penicillin/streptomycin (P/S) and 50 μg/ml gentamycin. HT-115 were cultured in DMEM medium supplemented with 15% FBS and 1% P/S. Cells were maintained in a humidified incubator at 37° C., in the presence of 5% CO2.
(§2) For cell growth assays, single-cell suspensions were plated at 2×10^3 cells/well (4×10^3 cells/well for HT115) in 96-well culture dishes in medium containing 0.5% FBS and allowed to adhere. The non-adherent cells were then removed, and fresh medium containing 0.5% FBS was added into each well. Cells were cultured in the presence or absence of the specified substances. Each substance was dissolved as a 25 mM stock solution in culture medium containing 0.5% FBS, and the pH of each stock solution was adjusted to 7.4, if necessary, with NaOH. Substances were used at a final concentration ranging from 0.5 to 10 mM. Cell proliferation was determined by measuring the incorporation of 5-bromo-2′-deoxyuridine (BrdU) into DNA using a commercially available cell proliferation kit (Roche Diagnostics™, Monza, Italy). BrdU was added to the cell cultures during the last 6 hours of incubation, and the level of BrdU-positive cells was assessed after 48 h culture by enzyme-linked immunosorbent assay (ELISA).
(§3) Optical density (OD) was determined at 450 nm using an ELISA reader. Experiments were performed in triplicate and the results are reported as the mean±standard deviation (SD).

The test system of a further data set is HT-29, HT-115 and DLD-1. Nature of the data set: Colon cancer cell growth by BrdU assay, three human colon carcinoma cell lines. In kind it is cell-based. The following applies: for anti-proliferative effect on colon cancer cell growth (in words): 0.5-10 mM; for anti-proliferative effect on colon cancer cell growth (in words) / inhibition at 10000 µM: 48 h; for inhibition at 10000 µM: Homo sapiens, Colon carcinoma cell, final concentration 10 mM; for cell death following precipitates in cell cultures: colon cancer cell cultures, Example 10. On the procedure: For this purpose, three human colon carcinoma cell lines (i.e. HT-29, HT-115 and DLD-1) were used. These cell types were selected on the basis of the cyclooxigenase-2 (COX-2) expression. Indeed, HT-115 cells express a biologically active COX-2, HT-29 cells express a non-functional COX-2 isoform, and DLD-1 are COX-2-deficient cells.
as §1, §2, §3

For another data set, the system named is HT-29 STD cells. Description: Cytotoxic effect on epithelial cells seen in the HT-29 experiments. In kind it is cell-based, human. The settings on record: 30 mM, HT-29 cells. The protocol:
HT-29 STD cells were transiently transfected using the Effectene™ transfection reagent (Qiagen™) according to instructions from the manufacturer. To test PPARγ activation, we performed transfection with 500 ng of a minimal promoter construct containing two copies of PPRE obtained from the cytochrome p450 4A (2XCYP) (1). The renilla luciferase plasmid ([…]) was also transfected as an internal control for monitoring transfection efficiency and for normalizing the firefly luciferase activity. Transfected cells were left for 48 hours incubation at 37° C. […] The pH of the drug solutions was adjusted to 7.4 with NaOH. Total cell extracts were prepared using the Passive Lysis Buffer (Promega™, Madison, Wis.). Luciferase activity was assayed in 20 μl of the extract using the Promega™ Dual Luciferase assay system according to the manufacturer's protocol. Transfections were assayed in triplicate in at least three separate experiments. The luciferase activity was expressed as fold of the activity obtained in cells treated with the different molecules divided by luciferase activity from non-stimulated cells.
After 24 h of culture, HT-29 STD cells were treated during 24 h with the new molecules 13, 14, 17, 26 and 31, at 30 mM. […] The pH of the drug solutions was adjusted to 7.4 with NaOH. Cells were fixed in PFA 4%, permeabilized in PBS containing 0.1% Triton X-100™ at 4° C. and then incubated with goat normal serum and blocking buffer (1% BSA in PBS) to minimize non-specific adsorption of the antibody.
After 24 h of culture, HT-29 STD cells were treated during 24 h with the new molecules 13, 14, 17, 26 and 31, at a concentration of 30 mM. […] The pH of the drug solutions was adjusted to 7.4 with NaOH. Cells undergoing apoptosis were identified by enzymatic labelling of DNA strands using a terminal transferase dUTP nick end labelling assay (TUNEL assay, Roche Diagnostics™, Meylan, France). Counts of at least 500 cells/sample were systematically performed blindly in one experiment. The results were expressed as the mean±SEM of the number of stained cells.

Data set [3] can be described thus: Solubility in drug solutions / culture medium. It is filed as physicochemical. The settings on record: for precipitates in cell cultures: colon cancer cell cultures.
Data set [4] relates to DLD-1 cells. Nature of the data set: CFSE flow cytometry of cell proliferation. The following applies: 48 hour treatment, untreated 90±4%. In kind it is cell-based, human. The protocol:
To assess further the effect of the compound 14 on colon epithelial cell growth, serum-starved DLD-1 cells were incubated in 0.2 μM carboxyfluorescein diacetate succinimidyl ester (CFSE) (Invitrogen™, Milan Italy) at 37° C. for 30 minutes, then extensively washed and cultured with or without the addition of the compound. After 2 days culture, CFSE fluorescence was evaluated and the proportion of cells undergoing divisions was determined, thus allowing calculation of both precursor frequency and proliferative index.

For the next data set, the system named is PPARγ. Nature of the data set: PPARγ protein expression by western blot in HT-29 cells. In kind it is cell-based, human. The settings on record: 30 mM, 24 hours, HT-29, relative to β-actin. The protocol:
The total proteins were obtained by cell homogenization in an extraction buffer consisting of PBS with 2% Triton™, Phenyl Methyl Sulphonyl Fluoride (PMSF) 100 mM and a classical protease inhibitor cocktail (2). The total proteins were then separated by polyacrylamide gel electrophoresis and electroblotted. Polyvinylidendifluoride (PVDF) membranes were incubated overnight with rabbit polyclonal primary antibody directed against PPARγ (dilution 1/500, TEBU, Le Perray en Yveline, France). β-actin was detected using a rabbit monoclonal primary antibody diluted at 1/10,000 (Sigma). Immunodetection with a secondary peroxidase-conjugated antibody (1/1000, Dako™, Trappes, France) and chemiluminescence was performed according to the manufacturer's protocol (ECL™, Amersham Pharmacia Biotech™, Orsay, France). Optical density values of PPARγ were given for each condition in proportion to the quantity of the internal control β-actin in the same sample (2).
A general note: Immunoblotting shows a protein as a band on a membrane.

SMILES strings stand for the structures. Entries after “also recorded” stand apart in the source; their conditions may differ. Residues, ends and D or L forms follow the SMILES beside them. *: point of attachment. Cbz = O=C(OCc1ccccc1)*; CH2F = FC*

`COC(=O)C[C@H](NC(=O)[C@H](C)NC(=O)[C@@H](NC(=O)OCc1ccccc1)C(C)C)C(=O)CF` [Z-VAD, z-VAD-fmk, reference compound] (Cbz-Val-Ala-Asp(OMe)-CH2F): in the data set with DLD-1 cells [1] (preincubation z-VAD-fmk 40 μM 1 hour, then compound 14 1.5 mM), the “percentage of AV/PI-positive cells in cells treated with compound 14” value is “largely reduced”.

As to `COc1cc(N)ccc1C(=O)NO` [compound 13, 4-amino-N-hydroxy-2-methoxybenzamide], in the data set on DLD-1 cells [2], the inhibition at 500 µM came out at 21.1%, the inhibition at 1000 µM came to 73%, the inhibition at 2500 µM amounted to 92.7% and the inhibition at 5000 µM was 96.3%. This molecule came in with an inhibition at 10000 µM in the data set with DLD-1 cells [2] of 96.4%. Moreover, in the data set with HT-29, HT-115 and DLD-1, the “anti-proliferative effect on colon cancer cell growth (in words)” value (from here on “anti-proliferative effect”) is “marked anti-proliferative effect; also recorded: most powerful suppressors of colon cancer cell growth”, the inhibition at 10000 µM was more than 90% and the “cell death following precipitates in cell cultures” value is listed as “massive cell death”. Also, in the data set with HT-29 STD cells, the “cytotoxic effect on epithelial cells” value is on record as “rapid cytotoxic effects”. Further, in data set [3] (Example 10), the “precipitates in cell cultures” value is “precipitates developed”.

In the case of `COc1ccc(N)cc1C(=O)NO` [compound 14, 5-amino-N-hydroxy-2-methoxybenzamide], in the data set with DLD-1 cells [2], the inhibition at 500 µM was determined as 22.8%, testing at 1000 µM gave an inhibition of 36%, at 2500 µM the inhibition was 76.5% and the inhibition at 5000 µM stood at 90.5%. In the data set on DLD-1 cells [2], this molecule showed an inhibition at 10000 µM of 94.1%. For the same molecule, in the data set with HT-29, HT-115 and DLD-1, the “anti-proliferative effect” value was “marked anti-proliferative effect; also recorded: most powerful suppressors of colon cancer cell growth” and the inhibition at 10000 µM is more than 90%. Also, the “fraction of proliferating cells” value in the data set with DLD-1 cells [4] (0.5 mM) is 48±7%. For the same molecule, in the data set with DLD-1 cells [4] (1 mM), the “fraction of proliferating cells” value turned out to be 21±11%. For the same molecule, the “fraction of proliferating cells” value in the data set with DLD-1 cells [4] (2.5 mM) is 11±6%. Further, the “cell death (AV and/or PI-positive cells)” value in the data set on DLD-1 cells [1] (1.5 mM, p<0.01) is “significantly enhances DLD1 cell death”. Moreover, in the data set on DLD-1 cells [1] (3 mM, p<0.001), the “cell death (AV and/or PI-positive cells)” value is listed as “significantly enhances DLD1 cell death”. Further, the “cytotoxic effect on epithelial cells” value in the data set with HT-29 STD cells is reported as “rapid cytotoxic effects”.

Consider `CCOc1ccc(N)cc1C(=O)NO` [compound 26, 5-amino-2-ethoxy-N-hydroxybenzamide], for which the “induction of PPARγ protein levels quantified by western blot” value with PPARγ stood at 2 fold. In the data set on DLD-1 cells [2], this molecule yielded an inhibition at 500 µM of 13.6%, an inhibition at 1000 µM of 19%, an inhibition at 2500 µM of 62% and an inhibition at 5000 µM of 86%. For the same molecule, in the data set with DLD-1 cells [2], 10000 µM produced 94.5% inhibition. Besides, the “anti-proliferative effect” value in the data set with HT-29, HT-115 and DLD-1 is “marked anti-proliferative effect”. In addition, in the data set with HT-29 STD cells, the “cytotoxic effect on epithelial cells” value is on record as “rapid cytotoxic effect”.

Consider `CC1(C)OC(=O)c2cc(N)ccc2O1` [compound 28, 6-amino-2,2-dimethyl-4H-benzo[1,3]dioxin-4-one], for which the “solubility in the culture medium” value in data set [3] (culture medium, Example 10) was “not soluble in the culture medium”.

In the data set on DLD-1 cells [2], `CC(C)N(c1ccc(O)c(C(=O)O)c1)C(C)C` [compound 38, 5-diisopropylaminosalicylic acid] showed an inhibition at 500 µM of 6%, an inhibition at 1000 µM of 11.1%, an inhibition at 2500 µM of 51.9% and an inhibition at 5000 µM of 85.9%. The molecule further had an inhibition at 10000 µM in the data set on DLD-1 cells [2] of 94.5%. For the same molecule, in the data set on HT-29, HT-115 and DLD-1, the “anti-proliferative effect” value is given as “marked anti-proliferative effect; also recorded: most powerful suppressors of colon cancer cell growth” and the “cell death following precipitates in cell cultures” value was “massive cell death”. Moreover, the “cytotoxic effect on epithelial cells” value in the data set on HT-29 STD cells is on record as “rapid cytotoxic effect”. Besides, in data set [3] (Example 10), the “precipitates in cell cultures” value is “precipitates developed”. In addition, the solubility result in data set [3] (drug solutions for HT-29 experiments, 30 mM, pH 7.4) is reported as “poor solubility”.

By inhibition is commonly meant the relative decrease from the control value, in per cent. A lower inhibition goes with a response near the control.

Values taken from US8138357B2, “Compounds and their salts specific to the PPAR receptors and the EGF receptors and their use in the medical field” (Giuliani International Limited, priority 2005, dated 2012).
